According to ChEMBL document CHEMBL1127944, “Synthesis of the potent and selective atypical -adrenergic agonist SR 59062A” (Bioorg Med Chem Lett, 1994):

Columns and labels:
Adrenergic receptor beta [1] = molecular target: T1, Adrenergic receptor beta (Rattus norvegicus, UniProt P18090+P10608+P26255); assay: Beta-adrenergic agonistic activity in rat uterus preincubated with phenoxybenzamine (12 uM) for 30 min; format: functional, tissue-based
Adrenergic receptor beta [2] = molecular target: Adrenergic receptor beta (Homo sapiens, UniProt P08588+P07550+P13945); assay: Beta-adrenergic agonistic activity in guinea-pig atrium preincubated with phenoxybenzamine (12 uM) for 30 min; format: functional, tissue-based, Cavia porcellus, Cardiac atrium; conditions: target entry is the homologue from another species
Adrenergic receptor beta [3] = molecular target: T1, Adrenergic receptor beta; assay: Beta-adrenergic agonistic activity in rat proximal colon; format: functional
Adrenergic receptor beta [4] = molecular target: T1, Adrenergic receptor beta; assay: Beta-adrenergic agonistic activity in rat proximal colon in presence of phentolamine (10 uM), desmethylimipramine (0.5 uM) and hydrocortisone (30 uM); format: functional, tissue-based

SMILES | IC50 (Adrenergic receptor beta [1]) [nM] | EC50 (Adrenergic receptor beta [2]) [nM] | IC50 (Adrenergic receptor beta [3]) [nM] | IC50 (Adrenergic receptor beta [4]) [nM]
CCOC(=O)c1ccc2c(c1)CC(NCC(O)c1cccc(Cl)c1)CC2.Cl (stereo not drawn) | 185 | > 30000 | 90 | 
CCOC(=O)CCc1ccc2c(c1)C[C@H](NC[C@H](O)c1cccc(Cl)c1)CC2.Cl | 480 | > 30000 |  | 0.9
CCOC(=O)CCc1ccc2c(c1)CC(NCC(O)c1cccc(Cl)c1)CC2.Cl (stereo not drawn) | 350 | > 30000 | 21 | 
CCOC(=O)CCc1ccc2c(c1)C[C@@H](NC[C@H](O)c1cccc(Cl)c1)CC2.Cl | 319 | > 30000 |  | 1.09
CCOC(=O)COc1ccc2c(c1)C[C@@H](NC[C@H](O)c1cccc(Cl)c1)CC2.Cl (mixture of isomers) [AMIBEGRON HYDROCHLORIDE] | 1200 | > 30000 | 47 | 
CCOC(=O)COc1ccc2c(c1)C[C@@H](NC[C@H](O)c1cccc(Cl)c1)CC2.Cl [AMIBEGRON HYDROCHLORIDE] | 499 | > 30000 |  | 3.5
